Key:
[1] = test system: Male CD-1 mice; experiment: Calcium-induced arrhythmia model (time to AV block after CaCl2 infusion); format: in vivo; conditions: compound IV 3 min before CaCl2 infusion (100 mg/kg/min), saline control 62-78
Procedure: Peptides suitable for administration to cardiac cells can be identified in an in vivo model of calcium-induced arrhythmias according to the model of Lynch et al. (1981) J Cardiovasc. Pharmacol. 3: 49-60. Male CD-1 mice are anaesthetized with Ketamine (75 mg/kg) and medetomidine (1 mg/kg) IP. An i.v. cannula is inserted into the tail vein. A lead II ECG signal is recorded continuously by positioning stainless steel ECG electrodes on the right forelimb and […]. The ground electrode is placed on the right hind limb. The signal is amplified and filtered using Gould physiograph components and po-ne-mah data acquisition software. After a 90 sec equilibration period test compound is injected into the tail vein (over 30 seconds). Mice pre-treated with vehicle are tested as control animals. The injection volume is 100 μl/30 g mice in all experiments. Infusion of CaCl2 (30 mg/mL, 0.1 mL/min/30 g mice, 100 mg/kg/min) is started 3 min after IV administration of drug or vehicle (0.9% saline). The time lag to onset of cardiac conduction block is determined as the time from the start of CaCl2 infusion until the first arrhythmic event occurred. The first conduction block is defined as the first RR-interval, larger than or equal to 3 times one RR-interval from the pre-treatment period. The first arrhythmic event occurring is either a second degree AV-block (intermittent failure of the AV conduction characterized by a P-wave without the concomitant QRS complex) or a second degree SA block (prolonged RR-interval and a QRS-complex without a preceding P-wave). Responses are expressed relative to the time until 2nd degree AV-block occurred in vehicle treated mice.
The anti-arrhythmic effect of compounds according to the present teachings was tested in a model of calcium-induced arrhythmias according to the model of Lynch et al., J. Cardiovasc. Pharmacol. (1981), 3: 49-60. Male CD-1 mice were anaesthetized with Ketamine (75 mg/kg) and medetomidine (1 mg/kg) IP. An i.v. cannula was inserted into the tail vein. A lead II ECG signal was recorded continuously by positioning stainless steel ECG electrodes on the right forelimb and […]. The ground electrode was placed on the right hind limb. The signal was amplified and filtered using Gould physiograph components and po-ne-mah data acquisition software. After a 90 sec equilibration period test compound was injected into the tail vein (over 30 seconds). Mice pre-treated with vehicle (0.9% saline) were tested as control animals. The injection volume was 100 μl/30 g mice in all experiments. Infusion of CaCl2 (30 mg/mL, 0.1 mL/min/30 g mice, 100 mg/kg/min) was started 3 min after IV administration of drug or vehicle. The time lag to onset of cardiac conduction block was determined as the time from the start of CaCl2 infusion until the first arrhythmic event occurred. The first conduction block was defined as the first RR-interval, larger/or equal to, 3 times one RR-interval from the pre-treatment period. The first arrhythmic event occurring was either a second degree AV-block (intermittent failure of the AV conduction characterized by a P-wave without the concomitant QRS complex) or a second degree SA block (prolonged RR-interval and a QRS-complex without a preceding P-wave).
Mice pre-treated with vehicle (0.9% saline) were tested on all days as a measure for control level in untreated animal. Injection volume was 100 μL in all experiments. The time lag to onset of arrhythmias was determined as the time from the start of CaCl2 infusion until the first event of conduction block defined as intermittent failure of the SA or AV conduction characterized by delayed P-wave activation (SA block) or by a P-wave without the concomitant QRS complex (AV block). The time lag to onset of AV block is given below in Table 2.

[2] = test system: C6 glioma cells overexpressing connexin43; experiment: In vitro cell swelling and dye uptake model (simulated ischemia); format: cell-based
Procedure: In this experiment, the effect of Compound 2 on calcein dye-uptake induced by metabolic inhibition in cultured C6 glioma cells overexpressing connexin43 was studied. Cells were incubated under control conditions and during simulated ischemia (SI) for 40 minutes in the presence of calcein (200 μM). Following incubation the cells were subjected to epifluorescence microscopy to determine the uptake of calcein. Incubation of C6 cells in SI medium increased dye-uptake to 5-fold above control values.

[3] = test system: dogs subjected to a 60-min coronary artery occlusion and 4 hr reperfusion; experiment: Canine infarct size and reperfusion arrhythmia model; format: in vivo; conditions: dog, two highest doses; for Total incidence of VT: IV 10-min before reperfusion, controls 23.0±6.1; for Total PVC's: during reperfusion, control 11.1±1.6%; for Infarct size, expressed as percent of left ventricle: controls 19.0±3.5
Procedure: Compound 2 was tested in dogs subjected to a 60-min coronary artery occlusion and 4 hr reperfusion, as described by Hennan et al. ([…]., 317, 236-43 (2006)). Compound 2 was administered IV 10-min before reperfusion as a bolus+IV infusion at doses of: 0.25 μg/kg bolus+0.19 μg/kg/hr infusion (n=6); 2.5 μg/kg bolus+1.9 μg/kg/hr infusion (n=7); 25 μg/kg bolus+19 μg/kg/hr infusion (n=6); 75 μg/kg bolus+57 μg/kg/hr infusion (n=5); vehicle control (n=7). Premature ventricular complexes (PVC's) were quantified during reperfusion. Four or more consecutive PVC's was defined as ventricular tachycardia (VT).

[4] = first value (25 μg/kg bolus+19 μg/kg/hr infusion)
[5] = second value (75 μg/kg bolus+57 μg/kg/hr infusion)

In the case of NCC(=O)N1C[C@H](NC(=O)c2ccccc2)C[C@H]1C(=O)O [Compound 2, (2S4R)1-(2-Amino-acetyl)-4-benzoylamino-pyrrolidine-2-carboxylic acid], the “Time to AV block” value [1] is reported as 134.7 s, the “relative reduction of the SI inducible calcein dye-uptake response” value ([2]; 100 μM compound, simulated ischemia 40 minutes, calcein 200 μM, p<0.05 vs. vehicle) is reported as 32% and the “calcein dye-uptake during simulated ischemia” value ([2]; C6 glioma cells overexpressing connexin43, simulated ischemia 40 minutes) is reported as “dose-dependently inhibited”. For the same compound, the “cell swelling during the 40 min stress period” value ([2]; C6 glioma cells, control cells exhibited cell swelling) was “did not”, the “half-life in male rat liver microsomes” value was “greater than 30 minutes” and the “Total incidence of VT” value [3, 4] was 1.7±0.8 events. The “Total incidence of VT” value [3, 5] was 2.2±1.4 events, the “Total PVC's” value [3, 4] was 2.0±0.7% and the “Total PVC's” value [3, 5] was 1.8±0.8%. The “Infarct size, expressed as percent of left ventricle” value [3, 4] was 7.9±1.5% and the “Infarct size, expressed as percent of left ventricle” value [3, 5] was 7.1±0.8%.
